Experimental data taken from ChEMBL document CHEMBL1201862, “PubChem BioAssay data set” (2004).
Activity calls are given as the source filed them.

Assays:
[1] = biological target: T1, Mitochondrial peptide methionine sulfoxide reductase (Bos taurus, UniProt P54149); format: functional;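 also: absorbance read-out, biochemical high-throughput dose-response screen for MsrA inhibitors, confirmatory; recombinant bovine MsrA coupled to E. coli TrxB with NADPH and selenocystamine; potency is for inhibitors of MsrA activity on DMSO substrate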
T1 sequence (P54149 whole entry): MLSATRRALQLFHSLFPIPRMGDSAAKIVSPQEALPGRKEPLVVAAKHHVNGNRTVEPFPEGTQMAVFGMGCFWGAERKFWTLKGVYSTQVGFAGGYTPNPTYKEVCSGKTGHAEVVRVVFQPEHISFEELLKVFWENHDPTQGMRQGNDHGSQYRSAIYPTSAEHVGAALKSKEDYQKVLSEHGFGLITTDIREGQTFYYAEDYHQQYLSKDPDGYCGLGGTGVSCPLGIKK

[2] = biological target: T2, Beta-2 adrenergic receptor (Homo sapiens, UniProt P07550); experiment: Dose response for HTS for Beta-2AR agonists via FAP method from Powderset1.; format: functional
[3] = biological target: T2, Beta-2 adrenergic receptor; experiment: ADRB2 activation measured by internalization – cell-based, FAP fluorogen, flow cytometry, cherry pick 1, dose response (AID 588763); format: functional
[4] = Cytotoxicity Dose Response with AM2.2-beta2AR cells for PowderSet01.; format: functional, cell-based; conditions: read-out: EC50_MICROM
[5] = inhibition of ARNT PAS-B/TACC3 complex formation – biochemical, AlphaScreen, cherry-picked samples, confirmation (AID 651703); format: functional, Homo sapiens;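 also: His-tagged ARNT PAS-B domain paired with GST-TACC3 E629A dimer coactivator fragment; potency of inhibitors that break up the complex and lower AlphaScreen signal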
Caspase-6 = biological target: T3, Caspase-6 (Homo sapiens, UniProt P55212); experiment: inhibition of CASP6 peptide cleavage – biochemical, VEID-R110 fluorescence, cherry-pick, dose response (AID 720632)
T3 sequence (P55212 whole entry): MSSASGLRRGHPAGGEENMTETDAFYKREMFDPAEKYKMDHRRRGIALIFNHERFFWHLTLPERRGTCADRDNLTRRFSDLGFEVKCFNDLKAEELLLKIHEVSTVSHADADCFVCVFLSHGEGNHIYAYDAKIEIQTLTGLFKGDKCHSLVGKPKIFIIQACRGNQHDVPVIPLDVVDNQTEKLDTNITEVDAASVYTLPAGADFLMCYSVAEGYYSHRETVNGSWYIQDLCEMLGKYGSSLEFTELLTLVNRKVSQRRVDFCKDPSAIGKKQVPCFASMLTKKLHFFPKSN

[6] = tested on: Streptococcus sp. 'group A'; experiment: Streptococcus pyogenes SK(-)GAS viability under kanamycin – luminescence, BacTiterGlo, confirmation, counter-screen for streptokinase expression inhibitor project, dose response (AID 1900); format: functional, organism-based
Streptokinase A = biological target: T4, Streptokinase A (Streptococcus pyogenes serotype M1, UniProt P10520); experiment: viability-normalized secreted streptokinase activity reduction – plasminogen activation absorbance, OD405, dose response (AID 1914); format: functional, Streptococcus pyogenes M1 GAS;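 also: secreted streptokinase activity via plasminogen activation per viability signal from cell pellet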
T4 sequence (P10520 whole entry): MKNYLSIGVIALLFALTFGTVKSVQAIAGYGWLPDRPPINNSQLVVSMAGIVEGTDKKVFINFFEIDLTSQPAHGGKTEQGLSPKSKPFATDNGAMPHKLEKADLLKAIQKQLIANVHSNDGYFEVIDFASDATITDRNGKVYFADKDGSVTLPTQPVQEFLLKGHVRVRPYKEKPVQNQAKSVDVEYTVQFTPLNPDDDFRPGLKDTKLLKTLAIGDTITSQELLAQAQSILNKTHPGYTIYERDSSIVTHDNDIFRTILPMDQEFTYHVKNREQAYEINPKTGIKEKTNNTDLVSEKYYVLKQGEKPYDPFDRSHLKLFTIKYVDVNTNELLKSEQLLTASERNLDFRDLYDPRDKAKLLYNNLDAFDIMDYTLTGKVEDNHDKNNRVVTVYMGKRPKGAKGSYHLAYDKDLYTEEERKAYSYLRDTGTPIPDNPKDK

Streptococcus = experiment: GAS UMAA2166 growth inhibition – luminescence, BacTiterGlo, counter-screen for streptokinase expression inhibitor project, dose response (AID 1915); format: functional, organism-based;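 also: potency for reduction of bacterial viability or growth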
Nonstructural protein 1 = Nonstructural protein 1 (Influenza A virus, UniProt Q194T2); format: functional, Influenza A virus (A/California/07/2009(H1N1))
INS1 = experiment: INS-1E survival protection against cytokine death – cell-based, luminescence, retest, dose response (AID 449756); format: functional; conditions: Rattus norvegicus;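 also: cell death triggered by IL-1 beta plus TNF-alpha plus IFN-gamma mixture; protective hits raise ATP signal compared with cytokine alone wells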
[7] = reduction of Shn3 3'UTR-driven luciferase in osteoblasts – cell-based, Clone20 osteoblasts, firefly luciferase, cherry-picked, dose response (AID 624132); format: functional;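 also: firefly luciferase luminescence from reporter carrying the Shn3 3'UTR in osteoblasts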
[8] = loss of viability in HepG2 cells – cell-based, CellTiter-Glo, cherry-picked, cytotoxicity control for Shn3 inhibitor project, dose response (AID 624134); format: functional
[9] = non-specific 3'UTR reporter inhibition in Clone20-Shn3RL – cell-based, Renilla luciferase, cherry-picked, counter-screen for Shn3 inhibitor project, dose response (AID 624133); format: functional
[10] = biological target: Photoreceptor-specific nuclear receptor (Homo sapiens, UniProt Q9Y5X4); format: functional, cell-based;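 also: CHO-S cells with Gal4-NCOR and VP16-NR2E3 two-hybrid luciferase reporter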
[11] = Luminescence Cell-Based Dose Retest to Confirm Inhibitors of Cancer Stem Cells. [Related pubchem assays (depositor defined):AID2717, AID2721]; format: functional; conditions: Homo sapiens
[12] = biological target: T5, Heat shock factor protein 1 (Mus musculus, UniProt P38532); experiment: enhancement of HSF1-driven luciferase signal – cell-based, NIH3T3, luminescence, dose retest, confirmation (AID 435004); format: functional;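 also: stress induced by proteasome inhibitor MG132 added 30 min after compound; luciferase reporter driven by HSF1 response element in NIH3T3 cells; actives raise luminescence as potentiators of the MG132 stress response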
T5 sequence (P38532 whole entry): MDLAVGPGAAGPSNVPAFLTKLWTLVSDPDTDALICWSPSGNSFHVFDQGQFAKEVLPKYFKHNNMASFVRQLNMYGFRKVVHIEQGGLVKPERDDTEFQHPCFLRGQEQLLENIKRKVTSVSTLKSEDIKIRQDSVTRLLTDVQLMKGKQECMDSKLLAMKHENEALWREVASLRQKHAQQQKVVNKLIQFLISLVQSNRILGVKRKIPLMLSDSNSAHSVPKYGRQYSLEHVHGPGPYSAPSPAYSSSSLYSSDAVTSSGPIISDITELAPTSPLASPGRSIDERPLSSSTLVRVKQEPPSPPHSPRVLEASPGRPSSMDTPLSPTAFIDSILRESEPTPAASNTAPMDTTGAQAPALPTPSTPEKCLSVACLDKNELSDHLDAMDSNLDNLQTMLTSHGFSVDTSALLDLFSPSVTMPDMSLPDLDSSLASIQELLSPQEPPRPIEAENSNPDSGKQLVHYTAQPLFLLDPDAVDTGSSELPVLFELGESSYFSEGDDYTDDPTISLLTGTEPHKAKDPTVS

Vero = experiment: cells; format: functional; conditions: Chlorocebus sabaeus
Protein skinhead-1 = biological target: T6, Protein skinhead-1 (Caenorhabditis elegans, UniProt P34707); format: functional
T6 sequence (P34707 whole entry): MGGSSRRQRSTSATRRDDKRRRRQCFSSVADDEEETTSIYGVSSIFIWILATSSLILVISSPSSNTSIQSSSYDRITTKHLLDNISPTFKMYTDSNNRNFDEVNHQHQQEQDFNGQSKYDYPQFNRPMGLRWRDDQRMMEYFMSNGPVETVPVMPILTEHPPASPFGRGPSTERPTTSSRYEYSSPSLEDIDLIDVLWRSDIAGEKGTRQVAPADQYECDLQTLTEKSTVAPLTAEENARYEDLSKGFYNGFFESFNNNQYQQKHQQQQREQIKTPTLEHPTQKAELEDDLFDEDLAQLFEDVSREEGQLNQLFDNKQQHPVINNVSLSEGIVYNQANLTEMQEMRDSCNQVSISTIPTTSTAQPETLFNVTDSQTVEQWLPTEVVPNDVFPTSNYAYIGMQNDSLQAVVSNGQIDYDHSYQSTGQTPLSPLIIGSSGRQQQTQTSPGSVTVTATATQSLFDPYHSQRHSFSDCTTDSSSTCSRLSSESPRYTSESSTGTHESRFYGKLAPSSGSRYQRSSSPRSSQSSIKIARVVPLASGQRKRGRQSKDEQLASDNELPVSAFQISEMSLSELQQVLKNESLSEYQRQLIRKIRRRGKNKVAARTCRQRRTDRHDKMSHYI

[13] = biological target: Hepatocyte nuclear factor 4-alpha (Homo sapiens, UniProt P41235); format: functional, cell-based;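 also: biochemical luminescence-based dose-response counterscreen measuring inhibition of HNF4 dimerization, run alongside a screen for blockers of ABHD5–perilipin-5 interaction; split luciferase complementation of HNF4 fusion proteins in cell lysate measuring dimerization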
Sequence of Hepatocyte nuclear factor 4-alpha (P41235 whole entry, the tested form may be a part): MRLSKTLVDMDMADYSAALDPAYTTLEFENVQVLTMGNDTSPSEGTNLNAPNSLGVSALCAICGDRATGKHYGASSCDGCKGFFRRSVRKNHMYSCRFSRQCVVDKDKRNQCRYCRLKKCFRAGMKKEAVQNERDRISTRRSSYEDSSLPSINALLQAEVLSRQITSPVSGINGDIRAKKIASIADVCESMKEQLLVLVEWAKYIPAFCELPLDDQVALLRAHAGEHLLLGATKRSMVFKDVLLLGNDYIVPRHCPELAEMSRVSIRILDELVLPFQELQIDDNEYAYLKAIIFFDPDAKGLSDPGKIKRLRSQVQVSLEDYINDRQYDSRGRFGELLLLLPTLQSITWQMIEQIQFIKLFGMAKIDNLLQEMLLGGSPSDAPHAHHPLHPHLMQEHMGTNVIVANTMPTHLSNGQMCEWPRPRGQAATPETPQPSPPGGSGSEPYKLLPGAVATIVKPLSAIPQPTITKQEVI

T2 sequence (P07550 whole entry): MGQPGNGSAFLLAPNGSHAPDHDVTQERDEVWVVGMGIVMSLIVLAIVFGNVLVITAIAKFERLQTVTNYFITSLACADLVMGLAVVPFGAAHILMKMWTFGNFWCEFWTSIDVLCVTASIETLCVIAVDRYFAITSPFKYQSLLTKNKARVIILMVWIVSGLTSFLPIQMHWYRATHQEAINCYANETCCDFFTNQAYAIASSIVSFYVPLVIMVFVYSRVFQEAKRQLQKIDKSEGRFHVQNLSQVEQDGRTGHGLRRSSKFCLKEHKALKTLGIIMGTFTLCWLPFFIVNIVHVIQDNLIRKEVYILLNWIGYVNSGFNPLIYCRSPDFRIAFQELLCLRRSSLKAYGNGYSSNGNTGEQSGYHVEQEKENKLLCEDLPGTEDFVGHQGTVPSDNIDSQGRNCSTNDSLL
Sequence of Photoreceptor-specific nuclear receptor (Q9Y5X4 whole entry, the tested form may be a part): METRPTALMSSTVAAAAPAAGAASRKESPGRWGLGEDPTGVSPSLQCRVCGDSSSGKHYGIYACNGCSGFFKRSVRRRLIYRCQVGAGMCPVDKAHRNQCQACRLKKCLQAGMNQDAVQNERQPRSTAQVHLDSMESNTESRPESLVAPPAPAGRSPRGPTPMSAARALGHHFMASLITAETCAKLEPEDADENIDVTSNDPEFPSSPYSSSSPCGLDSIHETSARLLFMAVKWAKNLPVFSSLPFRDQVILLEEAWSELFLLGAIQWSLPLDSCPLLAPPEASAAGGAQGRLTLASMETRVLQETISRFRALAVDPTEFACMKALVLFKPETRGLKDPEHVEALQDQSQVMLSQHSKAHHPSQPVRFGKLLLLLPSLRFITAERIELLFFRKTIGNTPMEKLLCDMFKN
Sequence of Nonstructural protein 1 (Q194T2 whole entry): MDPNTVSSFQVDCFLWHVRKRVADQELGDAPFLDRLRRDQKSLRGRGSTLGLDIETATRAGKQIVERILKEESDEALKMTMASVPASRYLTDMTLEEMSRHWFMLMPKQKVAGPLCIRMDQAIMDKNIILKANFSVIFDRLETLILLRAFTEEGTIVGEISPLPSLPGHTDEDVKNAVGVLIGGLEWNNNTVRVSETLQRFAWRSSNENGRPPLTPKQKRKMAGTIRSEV

## C/C(=N/O)c1cc(C(C)(C)C)c(O)c(C(C)(C)C)c1
[1]
  IC50: 155 µM (inactive)

## O=C(Nc1ccc(S(=O)(=O)N2CCCCC2c2cccnc2)cc1)c1c(F)cccc1F (stereo not given)
[2]
  EC50: 0.119 µM (active)
[3]
  EC50: 2.46 µM (active)
[4]
  EC50: 5.39 µM (active)

## CC1CCN(C(=O)COC(=O)c2ccc([N+](=O)[O-])o2)CC1
[5]
  AC50: 122 µM (active)
Caspase-6
  AC50: 18.3 µM (active)

## CC(C)(C)Nc1nc(-c2ccccn2)nc2ccccc12
[6]
  EC50: 2.48 µM (active)
Streptokinase A
  EC50: > 150 µM (not active)
Streptococcus
  EC50: 5.93 µM (active)
Nonstructural protein 1
  IC50: 12.2 µM (active)
INS1
  AC50: 2.06 µM (active)
[7]
  AC50: 1.86 µM (active)
[8]
  AC50: > 70 µM (inactive)
[9]
  AC50: 1.42 µM (active)
[10]
  IC50: 3.88 µM (active)

## O=C(/C=C/Sc1ccccc1)c1ccc(Cl)cc1
[11]
  AC50: 3.46 µM (active)
[12]
  EC50: 9.05 µM (active)
Vero
  CC50: 14.2 µM (active)
Protein skinhead-1
  IC50: 31 µM (active)
[13]
  IC50: 6.31 µM (active)
